Assay results published in patent US9937234B2, “Compositions and methods for using and identifying antimicrobial agents” (priority 2013, dated 2018).
Entries after “also recorded” stand apart in the source; their conditions may differ.

B1: murine CXCL11 (protein, listed as Mus musculus)
chain: QGFLMFKQGRCLCIGPGMKAVKMAEIEKASVIYPSNGCDKVEVIVTMKAHKRQRCLDPRSKQARLIMQAIEKKNF
B2: murine CXCL10 (protein, listed as Mus musculus)
chain: MNPSAAVIFCLILLGLSGTQGIPLARTVRCNCIHIDDGPVRMRAIGKLEIIPASLSCPRVEIIATMKKNDEQRCLNPESKTIKNLMKAFSQKRSKRAP
B3: human CXCL11 (protein, listed as Homo sapiens)
chain: QGFPMFKRGRCLCIGPGVKAVKVADIEKASIMYPSNNCDKIEVIITLKENKGQRCLNPKSKQARLIIKKVERKNF
B4: murine CXCL9 (protein, listed as Mus musculus)
chain: KSAVLFLLGIIFLEQCGVRGTLVIRNARCSCISTSRGTIHYKSLKDLKQFAPSPNCNKTEIIATLKNGDQTCLDPDSANVKKLMKEWE

Key:
[1] = tested on: B. anthracis Sterne strain bacilli; format: cell-based, Bacillus anthracis
[2] = tested on: B. anthracis Sterne strain spores; format: cell-based, Bacillus anthracis
[3] = tested on: E. coli transposon mutants Tnx 6 and Tnx 15; assay: Secondary screen of E. coli transposon mutants (cfu/mL); format: cell-based, Escherichia coli; conditions: 6 μg/mL for 2 h
[4] = tested on: E. coli ΔaceE; assay: Antimicrobial assay against E. coli ΔaceE (cfu/mL); format: cell-based, Escherichia coli; conditions: 2 h
[5] = tested on: E. coli ΔaceE, ΔaceF and ΔlpdA; assay: Antimicrobial assay against E. coli PDHc subunit deletion mutants (cfu/mL); format: cell-based, Escherichia coli; conditions: concentrations as high as 48 μg/mL; 2 h
[6] = tested on: E. coli parent strain (BW25113); assay: Antimicrobial assay against E. coli parent strain (cfu/mL); format: cell-based, Escherichia coli

| Molecule | antimicrobial activity against the vegetative form (bacilli) [1] | effect on spore form / spore germination [2] | hierarchy of activity in ability to kill bacilli and block spore germination [1] | hierarchy of direct antimicrobial activity [1] | also measured |
| --- | --- | --- | --- | --- | --- |
| CCL2 [reference compound] | no antimicrobial activity | no antimicrobial activity |  |  |  |
| CCL5 [reference compound] | no antimicrobial activity | no antimicrobial activity |  |  |  |
| human CXCL9 | directly kill vegetative cells; also recorded: antimicrobial activity against the vegetative form | direct inhibitory effects on spore germination; also recorded: spore germination was blocked or reduced | CXCL10>CXCL9>CXCL11 | hCXCL10>hCXCL9>hCXCL11 |  |
| human CXCL10 | directly kill vegetative cells; also recorded: antimicrobial activity against the vegetative form | direct inhibitory effects on spore germination; also recorded: spore germination was blocked or reduced | CXCL10>CXCL9>CXCL11 | hCXCL10>hCXCL9>hCXCL11 | susceptibility of Tnx 6 and Tnx 15 in relation to the parent strain [3]: significantly decreased susceptibility; susceptibility of ΔaceE ([4]; increasing concentrations, compared to parent strain): significantly less susceptible; also recorded: exhibits resistance; also recorded: resistant; susceptibility of ΔaceE complemented with aceE ([4]; plasmid pUVA411 (aceE)): restored susceptibility; also recorded: restores the parent strain susceptibility phenotype; EC50 value [1]: 4 to 6 µg/mL; EC50 value, killing effect [1]: 0.33 µg/mL; more potent killing effect, stationary vs exponential phase [1]: > 10 fold; susceptibility of ΔaceE, ΔaceF and ΔlpdA deletion mutants [5]: equally resistant; effect on parent strain ([6]; 6 μg/mL): not entirely killed; effect on parent strain ([6]; 10 μg/mL for 2 hours): killed; effect on parent strain ([6]; 36 μg/mL (4.2 μM) and 48 μg/mL (5.6 μM)): killed; susceptibility of parent strain complemented with empty vector or aceE vector ([6]; pBR322 or pUVA411, increasing concentrations, 2 h): remained similarly susceptible |
| B1 |  |  | CXCL9>CXCL10>CXCL11 | mCXCL9>mCXCL10>mCXCL11 |  |
| B2 |  |  | CXCL9>CXCL10>CXCL11 | mCXCL9>mCXCL10>mCXCL11 |  |
| B3 | directly kill vegetative cells; also recorded: antimicrobial activity against the vegetative form | direct inhibitory effects on spore germination; also recorded: spore germination was blocked or reduced | CXCL10>CXCL9>CXCL11 | hCXCL10>hCXCL9>hCXCL11 |  |
| B4 |  |  | CXCL9>CXCL10>CXCL11 | mCXCL9>mCXCL10>mCXCL11 |  |
